The record followed here is ChEMBL document CHEMBL1139886, “Synthesis and characterization of constrained peptidomimetic dipeptidyl peptidase IV inhibitors: amino-lactam boroalanines” (J Med Chem, 2007).

The target in assay [1] is T1, Dipeptidyl peptidase 4 (Homo sapiens, UniProt P27487). Nature of the assay: Inhibition of human placental DPP4 at pH 2.
The target of assay [2] is T1, Dipeptidyl peptidase 4. Nature of the assay: Inhibition of human placental DPP4.
Assay [3] concerns the target T1, Dipeptidyl peptidase 4. The experiment in a line: Inhibition of human placental DPP4 at pH 8.

Structures are written as SMILES.

T1 sequence (P27487 whole entry): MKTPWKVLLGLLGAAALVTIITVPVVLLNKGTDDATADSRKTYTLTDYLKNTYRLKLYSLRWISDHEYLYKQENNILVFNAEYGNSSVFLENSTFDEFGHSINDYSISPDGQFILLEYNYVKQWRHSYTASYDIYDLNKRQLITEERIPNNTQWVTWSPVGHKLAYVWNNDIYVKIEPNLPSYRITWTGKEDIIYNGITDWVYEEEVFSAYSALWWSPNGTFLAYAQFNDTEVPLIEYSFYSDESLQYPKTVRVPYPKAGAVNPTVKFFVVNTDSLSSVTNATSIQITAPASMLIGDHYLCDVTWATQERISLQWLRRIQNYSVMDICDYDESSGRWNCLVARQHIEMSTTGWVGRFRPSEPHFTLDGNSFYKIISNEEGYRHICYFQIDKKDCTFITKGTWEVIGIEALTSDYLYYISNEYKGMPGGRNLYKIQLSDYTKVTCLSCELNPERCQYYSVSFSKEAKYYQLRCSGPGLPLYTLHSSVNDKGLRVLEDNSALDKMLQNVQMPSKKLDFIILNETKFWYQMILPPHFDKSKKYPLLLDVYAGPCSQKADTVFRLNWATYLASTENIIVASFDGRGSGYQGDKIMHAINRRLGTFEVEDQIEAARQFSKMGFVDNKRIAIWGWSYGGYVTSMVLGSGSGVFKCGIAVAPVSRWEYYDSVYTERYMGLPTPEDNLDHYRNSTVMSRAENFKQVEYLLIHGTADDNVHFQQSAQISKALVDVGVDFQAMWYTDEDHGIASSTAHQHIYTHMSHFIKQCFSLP

What is called IC50 is the point on the concentration scale where inhibition reaches its midpoint. The term Ki denotes the dissociation constant of the complex between target and ligand, obtained from inhibition or displacement. Turning to `C[C@@H](B(O)O)N1CC[C@H](N)C1=O`, the IC50 in assay [1] amounted to 480 nM; in assay [3], 460 nM. The compound also returned a Ki in assay [2] of 1100 nM.

For the compound `C[C@@H](B(O)O)N1CC[C@@H](N)C1=O`, the IC50 in assay [1] was 5.3 nM; in assay [3], 4.2 nM. In addition, the inhibition constant Ki in assay [2] amounted to 2.3 nM.
